Data on ten molecules can be found in ChEMBL document CHEMBL1201862, “PubChem BioAssay data set” (2004).

The structures appear in SMILES notation.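 Assay format: 96-well plates, 48-hour exposure. The concentration for 50% growth inhibition is given as GI50.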 Active and inactive are the calls of the source. Rule as the data show it: active = GI50 up to about 1.1 µM and inactive = higher.

What all share (assay): NCI tumour cell line growth inhibition, 48 h
Experiment [1] relates to NCI/ADR-RES.
In experiment [2] the test system is NCI-H23.
Experiment [3] has as its system SR.
Experiment [4] relates to Malme-3M.
For experiment [5], the system named is K562.
The subject of experiment [6] is OVCAR-3.
The subject of experiment [7] is CCRF-CEM.
In experiment [8] the test system is SK-MEL-2.
The test system of experiment [9] is LOX IMVI.
Experiment [10] has as its system ACHN.
Experiment [11] concerns SN12C.
For experiment [12], the system named is OVCAR-5.
Experiment [13] relates to HCC 2998.
Experiment [14] relates to KM12.
In experiment [15] the test system is PC-3.
The subject of experiment [16] is HOP-62.
The subject of experiment [17] is NCI-H460.
For experiment [18], the system named is RXF 393.
The test system of experiment [19] is HT-29.
Experiment [20] relates to HCT-15.

For the molecule `O=c1sc2c(s1)SSSSS2`, the GI50 in experiment [1] was > 50 µM (inactive); in experiment [2], > 50 µM (inactive); in [3] it was > 50 µM (inactive); in experiment [4] it was > 50 µM (inactive); in experiment [5], 31.8 µM (inactive); in [6], 41.9 µM (inactive). The GI50 is 9.18 µM (inactive) in experiment [7]; > 50 µM (inactive) in [8]; 30.5 µM (inactive) in [9]; > 50 µM (inactive) in experiment [10]; > 50 µM (inactive) in [11]; > 50 µM (inactive) in experiment [12]. Moreover, the GI50 in experiment [13] is > 50 µM (inactive); in experiment [14], > 50 µM (inactive); in experiment [15] it was > 50 µM (inactive); in experiment [16], > 50 µM (inactive); in experiment [17] it was 21.4 µM (inactive); in experiment [18] it was > 50 µM (inactive). Moreover, the figures for the GI50 in experiment [19] and in experiment [20] were 21.1 µM (inactive) and greater than 50 µM, respectively.

For the molecule `COc1ccc(/C(=N/O)c2ccccc2C2=Nc3ccccc3C(NCc3ccccc3)O2)cc1C` (stereo not given), the GI50 was 41.8 µM (inactive) in [1]; > 100 µM (inactive) in experiment [2]; 32.6 µM (inactive) in experiment [3]; 18.6 µM (inactive) in [4]; 16.7 µM (inactive) in experiment [5]; 45.7 µM (inactive) in [6]. The GI50 in [7] was 19.1 µM (inactive); in experiment [8], 32.7 µM (inactive); in experiment [9], 15.7 µM (inactive); in experiment [10], 38 µM (inactive); in experiment [11] it was 22.9 µM (inactive); in experiment [12], 33.8 µM (inactive). Moreover, the GI50 in experiment [13] was 20.9 µM (inactive); in [14], 46.2 µM (inactive); in experiment [15] it was 17.3 µM (inactive); in [16], 31.1 µM (inactive); in experiment [17] it was 29.9 µM (inactive); in experiment [18], 47.3 µM (inactive). Besides, the GI50 in experiment [19] is 25.1 µM (inactive); in experiment [20], 30.3 µM.

As to `Nc1ccc(/N=N/c2c(S(=O)(=O)O)cc3ccccc3c2S(=O)(=O)O)cc1`, the GI50 in experiment [1], in experiment [2], in experiment [3], in [4], in experiment [5] and in experiment [6] was > 100 µM (inactive) in each case. For the same molecule, the GI50 in [7] is 34.8 µM (inactive); in [8], > 100 µM (inactive); in experiment [9], > 100 µM (inactive); in [10], > 100 µM (inactive); in [11], > 100 µM (inactive); in [12] it was > 100 µM (inactive). Moreover, the GI50 in experiment [13], in [14], in [15], in experiment [16], in [17] and in experiment [18] was > 100 µM (inactive) each time. The GI50 in experiment [19] was > 100 µM (inactive); in [20], greater than 100 µM.

In the case of `Cc1ccc([N+](=O)[O-])cc1S(=O)(=O)Nc1ccc(C2=NN(S(=O)(=O)c3cc([N+](=O)[O-])ccc3C)C(c3ccccc3)C2)cc1` (stereo not given), the GI50 in experiment [1] is 25.5 µM (inactive); in experiment [2], 24.2 µM (inactive); in experiment [3] it was 32 µM (inactive); in [4], 17.7 µM (inactive); in experiment [5] it was 30.1 µM (inactive); in [6], 26 µM (inactive). The GI50 in experiment [7] was 36.1 µM (inactive); in [8], 22.6 µM (inactive); in [9] it was 34.3 µM (inactive); in [10] it was 31.8 µM (inactive); in experiment [11], 28.2 µM (inactive); in experiment [12] it was 51.2 µM (inactive). For the same molecule, the GI50 in [13] is 22.2 µM (inactive); in experiment [14] it was 34.9 µM (inactive); in experiment [15] it was 26.9 µM (inactive); in experiment [16] it was 35.1 µM (inactive); in experiment [17], 21.6 µM (inactive); in [18], 36.6 µM (inactive). Also, the GI50 in experiment [19] was 33.5 µM (inactive); in experiment [20] it was 30.9 µM.

On to `Cn1c(=O)c2c(nc3n(C)c(=O)c4ccccc4n23)n(C)c1=O`, for which the GI50 is 59.4 µM (inactive) in experiment [1]; 40.4 µM (inactive) in experiment [2]; 3.67 µM (inactive) in experiment [3]; > 49.3 µM (inactive) in experiment [4]; > 67 µM (inactive) in [5]; > 100 µM (inactive) in experiment [6]. For the same molecule, the GI50 in experiment [7] is 13.5 µM (inactive); in experiment [8], > 100 µM (inactive); in [9], 38.7 µM (inactive); in experiment [10], 17.1 µM (inactive); in [11], 29.2 µM (inactive); in experiment [12] it was > 100 µM (inactive). The GI50 in experiment [13] was > 100 µM (inactive); in experiment [14], 53.6 µM (inactive); in experiment [15], > 95.3 µM (inactive); in experiment [16] it was 21 µM (inactive); in experiment [17] it was 6.93 µM (inactive); in experiment [18], > 61.8 µM (inactive). Also, the GI50 in experiment [19] is 75.3 µM (inactive); in [20], 35.1 µM.

On to `Cc1oc(N)c(S(=O)(=O)/C(C#N)=C/c2ccccc2[N+](=O)[O-])c1C`, for which the GI50 in experiment [1] is 27.3 µM (inactive); in experiment [2], 23.6 µM (inactive); in experiment [3] it was 14 µM (inactive); in experiment [4], 33.8 µM (inactive); in [5], 18.6 µM (inactive); in [6], 21.4 µM (inactive). The GI50 is 24.1 µM (inactive) in experiment [7]; 37.2 µM (inactive) in experiment [8]; 14 µM (inactive) in experiment [9]; 25.4 µM (inactive) in experiment [10]; 22.9 µM (inactive) in [11]; 20.6 µM (inactive) in experiment [12]. In addition, the GI50 in [13] is 32.1 µM (inactive); in experiment [14], 25.2 µM (inactive); in experiment [15], 23.1 µM (inactive); in [16], 31.1 µM (inactive); in [17], 31.1 µM (inactive); in experiment [18] it was 21.9 µM (inactive). Also, the figures for the GI50 in experiment [19] and in [20] were 19.2 µM (inactive) and 26.5 µM, respectively.

Turning to `O=C(c1c(F)c(F)c(F)c(F)c1F)N1CCN(C(=O)c2c(F)c(F)c(F)c(F)c2F)C1=S`, the GI50 in experiment [1] is 7.33 µM (inactive); in experiment [2] it was 6.81 µM (inactive); in [3] it was 3.38 µM (inactive); in experiment [4], 4.58 µM (inactive); in experiment [5], 1.96 µM (inactive); in experiment [6], 5.08 µM (inactive). Moreover, the GI50 in experiment [7] is 2.79 µM (inactive); in experiment [8] it was 2.11 µM (inactive); in experiment [9], 2.51 µM (inactive); in experiment [10] it was 7.69 µM (inactive); in [11], 8.11 µM (inactive); in experiment [12], 15.6 µM (inactive). Also, the GI50 in [13] was 9.57 µM (inactive); in experiment [14], 6 µM (inactive); in experiment [15], 7.67 µM (inactive); in [16], 15.2 µM (inactive); in experiment [17], 10.7 µM (inactive); in [18], 2.62 µM (inactive). Also, the results for the GI50 in experiment [19] and in experiment [20] were 5.48 µM (inactive) and 2.2 µM, respectively.

As for `Cc1cc(N(CC(C)Br)CC(C)Br)ccc1/N=N/c1ccccc1C(=O)O` (stereo not given), the GI50 in [1] was 15.2 µM (inactive); in experiment [2] it was 3.81 µM (inactive); in experiment [3], 2.62 µM (inactive); in experiment [4], 4.61 µM (inactive); in experiment [5], 1.03 µM (active); in experiment [6], 16.9 µM (inactive). For the same molecule, the GI50 in experiment [7] was 19.6 µM (inactive); in [8] it was 2.93 µM (inactive); in experiment [9] it was 7.59 µM (inactive); in [10], 2.79 µM (inactive); in experiment [11], 4.72 µM (inactive); in experiment [12] it was 2.74 µM (inactive). The GI50 was 1.15 µM (inactive) in experiment [13]; 13.4 µM (inactive) in [14]; 12.9 µM (inactive) in experiment [15]; 4.71 µM (inactive) in [16]; 0.454 µM (active) in experiment [17]; 0.881 µM (active) in experiment [18]. Also, the GI50 was 4.85 µM (inactive) in [19] and 8.81 µM in experiment [20].

`CCOC(=O)NC1CN2CCC1CC2` (stereo not given): the GI50 in experiment [1], in [2], in experiment [3], in experiment [4], in experiment [5] and in experiment [6] was > 100 µM (inactive) in each case. Further, the GI50 in experiment [7], in [8], in experiment [9], in [10], in [11] and in experiment [12] was > 100 µM (inactive) each time. The GI50 in experiment [13], in [14], in experiment [15], in experiment [16], in [17] and in experiment [18] was > 100 µM (inactive) throughout. Besides, the GI50 in experiment [19] was > 100 µM (inactive); in experiment [20], greater than 100 µM.

`CC1Cc2cc(O)ccc2C2[C@@H]1C1CC[C@H](O)[C@@]1(C)C[C@@H]2O[N+](=O)[O-]` (stereo not given in full): the GI50 in experiment [1] is 3.82 µM (inactive); in [2], 12 µM (inactive); in experiment [3], 5.56 µM (inactive); in [4] it was 10.7 µM (inactive); in experiment [5] it was 3.79 µM (inactive); in experiment [6], 9.12 µM (inactive). The GI50 is 5.83 µM (inactive) in experiment [7]; 5.46 µM (inactive) in experiment [8]; 9.2 µM (inactive) in experiment [9]; 14.7 µM (inactive) in experiment [10]; 14.7 µM (inactive) in experiment [11]; 33.4 µM (inactive) in [12]. The GI50 is 5.48 µM (inactive) in experiment [13]; 19.7 µM (inactive) in [14]; 20.1 µM (inactive) in [15]; 8.83 µM (inactive) in experiment [16]; 9.35 µM (inactive) in experiment [17]; 2.73 µM (inactive) in experiment [18]. For the same molecule, the GI50 was 16 µM (inactive) in experiment [19] and 5.18 µM in [20].
